We go through 26 compounds from US20220370453A1 (Storm Therapeutics Ltd, priority 2019, published 2022).

The structures appear in SMILES notation.

For assay [1], the target named is T1, BCDIN3D (Homo sapiens, UniProt Q7Z5W3).
T1 sequence (Q7Z5W3 1-292): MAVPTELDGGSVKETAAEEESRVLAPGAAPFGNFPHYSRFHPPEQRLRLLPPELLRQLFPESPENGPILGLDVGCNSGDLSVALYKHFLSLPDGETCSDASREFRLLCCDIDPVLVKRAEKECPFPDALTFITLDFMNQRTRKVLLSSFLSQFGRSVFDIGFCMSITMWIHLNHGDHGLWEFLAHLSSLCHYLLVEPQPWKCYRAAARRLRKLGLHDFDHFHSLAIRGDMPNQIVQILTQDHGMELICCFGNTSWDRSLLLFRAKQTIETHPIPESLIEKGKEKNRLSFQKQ
The assay can be described thus: BCDIN3D IC50 RFMS (RapidFire) assay with mini-helix. It counts as biochemical. As to conditions: mini-helix substrate 0.2 μM, SAM 6 μM, 25 nM enzyme. Summed up:
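SAH formation was measured by RapidFire mass spectrometry with D4- and 13C10-SAH internal standards after TCA quench. Substrates 6 μM SAM and 0.2 μM mini-helix reacted 1 h at 37 °C with 25 nM enzyme, which had been preincubated 10 min with compound (1% DMSO) in Tris pH 8.0 buffer with DTT, EDTA, BSA.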

In assay [2] the target is T1, BCDIN3D. The assay can be described thus: BCDIN3D InCellPulse thermal stability assay in transfected A549 cells. It counts as cell-based. Particulars: transiently transfected A549 cells, heat shock 58° C. 15 min. The method, boiled down: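 Thermal stabilisation read-out: after a 15 min 58 °C heat shock, ePL-tagged BCDIN3D in transiently transfected A549 cells (1500/well) was quantified by enzyme-fragment complementation luminescence. Compounds were pre-incubated with cells 1 h at 37 °C, 0.6% DMSO final.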

Consider `Cc1ccc(CNc2nc(NCC(N)c3ccccc3)nc3c2cnn3C)cc1Cl` (stereo not shown) [Compound 4.03, 6-N-(2-amino-2-phenylethyl)-4-N-[(3-chloro-4-methylphenyl)methyl]-1-methylpyrazolo[3,4-d]pyrimidine-4,6-diamine], for which the IC50 in assay [1] was determined as 62.5 nM; in assay [2] it was 166 nM.
For the compound `Cn1ncc2c(NCc3ccc(F)cc3F)nc(NCC(N)c3ccccc3)nc21` (stereo not shown) [Compound 4.04, 6-N-(2-amino-2-phenylethyl)-4-N-[(2,4-difluorophenyl)methyl]-1-methylpyrazolo[3,4-d]pyrimidine-4,6-diamine], the IC50 in assay [1] worked out at 424 nM; in assay [2], 820 nM.
On the same counts, the results for `Cn1ncc2c(NCc3ccc(F)c(Cl)c3)nc(NCC(N)c3ccccc3)nc21` (stereo not shown) [Compound 4.05, 6-N-(2-amino-2-phenylethyl)-4-N-[(3-chloro-4-fluorophenyl)methyl]-1-methylpyrazolo[3,4-d]pyrimidine-4,6-diamine] are 109 nM and 275 nM.
On the same counts, the results for `Cn1ncc2c(NCc3cccc(Br)c3)nc(NCC(N)c3ccccc3)nc21` (stereo not shown) [Compound 4.06, 6-N-(2-amino-2-phenylethyl)-4-N-[(3-bromophenyl)methyl]-1-methylpyrazolo[3,4-d]pyrimidine-4,6-diamine] are 87.2 nM and 139 nM.
On the same counts, the results for `Cn1ncc2c(NCc3ccc(Br)cc3)nc(NCC(N)c3ccccc3)nc21` (stereo not shown) [Compound 4.07, 6-N-(2-amino-2-phenylethyl)-4-N-[(4-bromophenyl)methyl]-1-methylpyrazolo[3,4-d]pyrimidine-4,6-diamine] are 132 nM and 282 nM.
As for `Cn1ncc2c(NCc3ccc(C(F)(F)F)nc3)nc(NCC(N)c3ccccc3)nc21` (stereo not shown) [Compound 4.08, 6-N-(2-amino-2-phenylethyl)-1-methyl-4-N-[[6-(trifluoromethyl)pyridin-3-yl]methyl]pyrazolo[3,4-d]pyrimidine-4,6-diamine], the IC50 in assay [1] worked out at 1080 nM; in assay [2], 2950 nM.
The corresponding values for `COc1ccc(CNc2nc(NCC(N)c3ccccc3)nc3c2cnn3C)c(OC)c1` (stereo not shown) [Compound 4.09, N6-(2-amino-2-phenyl-ethyl)-N4-[(2,4-dimethoxyphenyl)methyl]-1-methyl-pyrazolo[3,4-d]pyrimidine-4,6-diamine] are 178 nM and 505 nM.
In the case of `Cn1ncc2c(Nc3ccc(F)cc3)nc(NCC(N)c3ccccc3)nc21` (stereo not shown) [Compound 4.10, 6-N-(2-amino-2-phenylethyl)-4-N-(4-fluorophenyl)-1-methylpyrazolo[3,4-d]pyrimidine-4,6-diamine], the IC50 is 71.7 nM in assay [1] and 323 nM in assay [2].
The corresponding values for `Cn1ncc2c(Nc3cnc(C(F)(F)F)nc3)nc(NCC(C)(N)c3ccccc3)nc21` (stereo not shown) [Compound 4.11, N6-(2-amino-2-phenyl-propyl)-1-methyl-N4-[2-(trifluoromethyl)pyrimidin-5-yl]pyrazolo[3,4-d]pyrimidine-4,6-diamine] are 168 nM and 2160 nM.
The corresponding values for `Cn1ncc2c(Nc3ccc(OC(F)(F)F)cc3)nc(NCC(C)(N)c3ccccc3)nc21` (stereo not shown) [Compound 4.12, N6-(2-amino-2-phenyl-propyl)-1-methyl-N4-[4-(trifluoromethoxy)phenyl]pyrazolo[3,4-d]pyrimidine-4,6-diamine] are 52.1 nM and 186 nM.
With `Cn1ncc2c(Nc3ccc(Cl)c(Cl)c3)nc(NCC(C)(N)c3ccccc3)nc21` (stereo not shown) [Compound 4.13, N6-(2-amino-2-phenyl-propyl)-N4-(3,4-dichlorophenyl)-1-methyl-pyrazolo[3,4-d]pyrimidine-4,6-diamine], the results for the IC50 in assay [1] and in assay [2] were 86.6 nM and 258 nM, respectively.
For the compound `Cn1ncc2c(Nc3ccc(OC(F)F)cc3)nc(NCC(N)c3ccccc3)nc21` (stereo not shown) [Compound 4.14, 6-N-(2-amino-2-phenylethyl)-4-N-[4-(difluoromethoxy)phenyl]-1-methylpyrazolo[3,4-d]pyrimidine-4,6-diamine], the IC50 in assay [1] is 89.5 nM; in assay [2] it was 206 nM.
With `Cn1ncc2c(Nc3ccc(OC(F)F)cc3)nc(NCC(C)(N)c3ccccc3)nc21` (stereo not shown) [Compound 4.15, 6-N-(2-amino-2-phenylpropyl)-4-N-[4-(difluoromethoxy)phenyl]-1-methylpyrazolo[3,4-d]pyrimidine-4,6-diamine], the IC50 in assay [1] stood at 69.4 nM; in assay [2], 295 nM.
As to `Cn1ncc2c(Nc3ccc(OC(F)F)cc3)nc(NC[C@H](N)c3ccccc3)nc21` [Compound 4.16, N6-[(2R)-2-amino-2-phenyl-ethyl]-N4-[4-(difluoromethoxy)phenyl]-1-methyl-pyrazolo[3,4-d]pyrimidine-4,6-diamine], the values for the IC50 in assay [1] and in assay [2] were 40.8 nM and 46.3 nM, respectively.
On to `Cn1ncc2c(Nc3ccc(C(F)(F)F)cc3)nc(NCC(N)c3ccccc3)nc21` (stereo not shown) [Compound 4.17, 6-N-(2-amino-2-phenylethyl)-1-methyl-4-N-[4-(trifluoromethyl)phenyl]pyrazolo[3,4-d]pyrimidine-4,6-diamine], for which the IC50 in assay [1] worked out at 50.1 nM; in assay [2] it was 178 nM.
On the same counts, the results for `Cc1nn(C)c2nc(NCC(N)c3ccccc3)nc(Nc3ccc(C(F)(F)F)cc3)c12` (stereo not shown) [Compound 4.18, 6-N-(2-amino-2-phenylethyl)-1,3-dimethyl-4-N-[4-(trifluoromethyl)phenyl]pyrazolo[3,4-d]pyrimidine-4,6-diamine] are 288 nM and 270 nM.
Regarding `Cn1ncc2c(Nc3ccc(C(F)(F)F)cc3)nc(NCC(C)(N)c3ccccc3)nc21` (stereo not shown) [Compound 4.19, N6-(2-amino-2-phenyl-propyl)-1-methyl-N4-[4-(trifluoromethyl)phenyl]pyrazolo[3,4-d]pyrimidine-4,6-diamine], the IC50 in assay [1] amounted to 36.1 nM; in assay [2], 86.4 nM.
The corresponding values for `[2H]C([2H])([2H])n1ncc2c(Nc3ccc(C(F)(F)F)cc3)nc(NCC(N)c3ccccc3)nc21` (stereo not shown) [Compound 4.20, N6-(2-amino-2-phenyl-ethyl)-1-(trideuteriomethyl)-N4-[4-(trifluoromethyl)phenyl]pyrazolo[3,4-d]pyrimidine-4,6-diamine] are 38.5 nM and 60.4 nM.
The corresponding values for `[2H]C([2H])([2H])n1ncc2c(Nc3ccc(C(F)(F)F)cc3)nc(NCC(C)(N)c3ccccc3)nc21` (stereo not shown) [Compound 4.21, N6-(2-amino-2-phenyl-propyl)-1-(trideuteriomethyl)-N4-[4-(trifluoromethyl)phenyl]pyrazolo[3,4-d]pyrimidine-4,6-diamine] are 42.8 nM and 218 nM.
On the same counts, the results for `Cn1ncc2c(Nc3ccc(C(F)(F)F)cc3)nc(NC[C@H](N)c3ccccc3)nc21` [Compound 4.22, 6-N-[(2R)-2-amino-2-phenylethyl]-1-methyl-4-N-[4-(trifluoromethyl)phenyl]pyrazolo[3,4-d]pyrimidine-4,6-diamine] are 34.1 nM and 29.9 nM.
Turning to `Cn1ncc2c(Nc3ccc(C(F)(F)F)cc3)nc(NC[C@@H](N)c3ccccc3)nc21` [Compound 4.23, 6-N-[(2S)-2-amino-2-phenylethyl]-1-methyl-4-N-[4-(trifluoromethyl)phenyl]pyrazolo[3,4-d]pyrimidine-4,6-diamine], the IC50 in assay [1] is 1520 nM; in assay [2] it was 202 nM.
On the same counts, the results for `[2H]C([2H])([2H])n1ncc2c(Nc3ccc(C(F)(F)F)cc3)nc(NC[C@H](N)c3ccccc3)nc21` [Compound 4.24, N6-[(2R)-2-amino-2-phenyl-ethyl]-1-(trideuteriomethyl)-N4-[4-(trifluoromethyl)phenyl]pyrazolo[3,4-d]pyrimidine-4,6-diamine] are 13.9 nM and 14.4 nM.
As for `Cn1ncc2c(Nc3ccc(C(F)(F)F)nc3)nc(NCC(N)c3ccccc3)nc21` (stereo not shown) [Compound 4.25, 6-N-(2-amino-2-phenylethyl)-1-methyl-4-N-[6-(trifluoromethyl)pyridin-3-yl]pyrazolo[3,4-d]pyrimidine-4,6-diamine], the IC50 in assay [1] was 50.7 nM; in assay [2], 319 nM.
The corresponding values for `Cn1ncc2c(Nc3ccc(C(F)(F)F)nc3)nc(NCC(C)(N)c3ccccc3)nc21` (stereo not shown) [Compound 4.26, 6-N-(2-amino-2-phenylpropyl)-1-methyl-4-N-[6-(trifluoromethyl)pyridin-3-yl]pyrazolo[3,4-d]pyrimidine-4,6-diamine] are 21.7 nM and 384 nM.
In the case of `[2H]C([2H])([2H])n1ncc2c(Nc3ccc(C(F)(F)F)nc3)nc(NCC(C)(N)c3ccccc3)nc21` (stereo not shown) [Compound 4.27, N6-(2-amino-2-phenyl-propyl)-1-(trideuteriomethyl)-N4-[6-(trifluoromethyl)-3-pyridyl]pyrazolo[3,4-d]pyrimidine-4,6-diamine], the IC50 turned out to be 46.6 nM in assay [1] and 610 nM in assay [2].
On the same counts, the results for `Cn1ncc2c(Nc3ccc(OC(F)F)nc3)nc(NCC(N)c3ccccc3)nc21` (stereo not shown) [Compound 4.28, N6-(2-amino-2-phenyl-ethyl)-N4-[6-(difluoromethoxy)-3-pyridyl]-1-methyl-pyrazolo[3,4-d]pyrimidine-4,6-diamine] are 149 nM and 318 nM.
